Laboratory results: patent publication EP4417607A1, “HETEROCYCLIC COMPOUND AS SOS1 INHIBITOR AND USES THEREOF” (Nanjing Zaiming Pharmaceutical Co., Ltd., priority 2021, dated 2023)

What was measured:
[1] = tested on: DLD-1 cell subcutaneous tumor model; assay: Growth inhibition in DLD-1 cell subcutaneous tumor model; format: in vivo, NU/NU mice; conditions: for TGI(%): 15 mg/kg, PO, BID, DLD-1 subcutaneous tumor, NU/NU mice
Excerpt: • Human colorectal cancer DLD-1 cell: ATCC, CCL-221 • RPMI-1640 culture medium: Gibco, REF: 61870-036 • Fetal bovine serum: Gibco, REF: 10091-148 • 0.25% trypsin-EDTA: Gibco, REF: 25200-072 • D-PBS (phosphate-buffered saline without calcium and magnesium ions): Hyclone, Cat. No.: SH30256.01 • Matrigel: Corning, Cat. No.: 356237
• Animal information: NU/NU mice, female, aged 6-7 weeks, 24-30 g, purchased from Beijing Vital River Biotechnology Co., Ltd. • Cell culture: human colon cancer cell strain DLD-1 was cultured in vitro under the conditions of RPMI-1640 (cell culture medium) added with 10% fetal bovine serum and 1% Pen Strep (Gibco penicillin-streptomycin diabody), and an incubator at 37 °C with 5% CO2. The cells were digested with a 0.25% trypsin-EDTA digestive solution twice a week for passaging as per conventional practice. When cell confluence was 80%-90% and a required amount was achieved, the cells were collected and counted. Cell inoculation: 0.1 mL/(containing 5×10^6) DLD-1 cell suspension (RPMI-1640: Matrigel, volume ratio 1: 1) was inoculated subcutaneously into the right lumbar dorsal part of each mouse. On day 6 after inoculation of the cells, the mice were randomly grouped and administrated based on tumor volume. The day when random grouping was performed was day 0.
Tumor diameters were measured twice weekly using a vernier caliper. The tumor volume was calculated using the following formula: V = 0.5a × b^2, where a and b represent the long diameter and short diameter of the tumor, respectively. Mouse body weight was measured twice weekly.
The anti-tumor therapeutic effect of the compound was evaluated by tumor growth inhibition rate TGI (%). TGI (%) = [(1 - (average tumor volume at the end of administration in a treatment group - average tumor volume at the start of administration of the treatment group)) / (average tumor volume at the end of treatment of the solvent control group - average tumor volume at the start of treatment of the solvent control group)] × 100%.

[2] = Caco-2 membrane permeability and transport; format: in vitro ADME; conditions: human, pH 7.4; for Papp A→B at 2 h, 10 µM: Caco-2, apical to basal; for Papp B→A at 2 h, 10 µM: Caco-2, basal to apical
Protocol: The membrane permeability and transport properties of the compound of the present disclosure were determined using the following method. • I. Experimental materials and instruments • 1. Caco-2 cells (ATCC) • 2. HEPES (Solarbio 804D049), penicillin/streptomycin (Solarbio 20200109), Trypsin/EDTA (Solarbio), and PBS (Solarbio 20200620) • 3. Fetal Bovine Serum (FBS) (Sigma WXBD0055V), lucifer yellow (Sigma MKCJ3738), and NaHCO3 (Sigma SLBZ4647) • 4. Hank's balanced salt solution (Gibco 2085528), non-essential amino acid (NEAA) (Gibco 2211548), and Trypsin/EDTA (Gibco 2120732) • 5. High glucose DMEM (Corning 20319014) • 6. HTS Transwell-96 Well Permeable (Corning, 3391) • 7. Resistance detector (Millipore, Millicell® ERS-2) • 8. Cellometer® Vision (Nexcelom Bioscience) • 9. Infinite 200 PRO microplate reader (Tecan, Infinite M200PRO) • 10. Positive control compound metoprolol (Sinopharm 100084-201403), erythromycin (MCE 84550), and cimetidine (Sinopharm 100158-201406) • 11. ABI QTrap 5500 liquid chromatography-mass spectrometry system • II. Procedures • 1. Caco-2 cell culture • 1) Preparation of transport buffer (HBSS containing 25 mM HEPES, pH 7.4): 5.958 g HEPES and 0.35 g NaHCOs were accurately weighed and dissolved in 900 mL pure water. 100 mL of 10× HBSS was then added and stirred well. The pH was adjusted to 7.4, and the mixture was filtered. • 2) Preparation of Caco-2 cell culture medium: FBS, penicillin, streptomycin, kanamycin, and NEAA were added to a high glucose DMEM (containing L-glutamine) culture medium to prepare a cell culture medium containing 10% FBS, 0.1 mg/mL streptomycin, 100 units penicillin, 0.6 µg/mL kanamycin, and 1× NEAA. • 3) Cells were cultured with a T-75 flask at 37 °C with 5% CO2 in an incubator. The culture medium was discarded when cell density reached 80-90%. The cells were rinsed with 5 mL PBS. 1.5 mL Trypsin/EDTA was added. The mixture was incubated at 37 °C for 5-10 min in an incubator until the cells shed like quicksand. Finally the Trypsin/EDTA was neutralized with a FBS-containing culture medium. • 4) The cell suspension was centrifuged at 120 × g for 10 min, and the supernatant was discarded. • 5) The cells were resuspended in a cell culture medium. The cell suspension was adjusted to a density of 6.86 × 10^5 cells/mL. • 2. Caco-2 cell inoculation • 1) 50 µL of culture medium was added to the Transwell chamber per well. 25 mL of culture medium was added to the lower chamber, and the chamber was preheated at 37 °C for 1 h with 5% CO2 in an incubator. • 2) 50 µL of the cell suspension was added to the preheated Transwell chamber per well at a final density of 2.4 × 10^5 cells/cm^2 • 3) The cells were cultured for 14-18 days. The culture medium was replaced every other day, and the culture medium was replaced within 48 h after the initial inoculation. The culture medium had to be replaced the day before the experiment. • 3. Evaluation of integrity of monolayer cell membrane • 1) The cells fused and differentiated after 14 days of culture and were ready for a transport experiment. • 2) The resistance of the monolayer membrane was measured using a resistance detector. […] Transport experiment • 1) A 10 mM stock solution of the compound of the present disclosure or the positive control compound was diluted with DMSO to give a 2 mM stock solution. The 2 mM stock solution was then diluted with the transport buffer to give a 10 µM working solution of the compound of the present disclosure or the positive control compound. • 2) The Caco-2 cell plate was taken out from the incubator, washed twice with the pre-heated transport buffer, and incubated at 37 °C in an incubator for 30 min. • 3) To determine the transport rate of the compound from the apical end to the basal end (A → B), 108 µL of the working solution of the compound was added to the Transwell chamber (apical end), while 8 µL of the sample was immediately taken from the apical end to 72 µL of the transport buffer. […]

Row | SMILES | inhibitory effect on tumor growth ([1]; 15 mg/kg orally twice a day, P < 0.0001) | TGI(%) [1] [%] | efflux ratio at 2 h, 10 µM ([2]; Caco-2, Papp (B-A)/Papp (A-B)) | Papp A→B at 2 h, 10 µM [2] [×10⁻⁶ cm/s] | Papp B→A at 2 h, 10 µM [2] [×10⁻⁶ cm/s] | efflux ratio ([2]; Caco-2, Papp (B-A)/Papp (A-B))
1 | Cc1nc(N[C@H](C)c2cccc(C(F)F)c2F)c2cn(C3(CF)CC3)c(=O)c(N3CCOC[C@@H]3C)c2n1 [Example 40, 4-(((R)-1-(3-(difluoromethyl)-2-fluorophenyl)ethyl)amino)-6-(1-(fluoromethyl)cyclopropyl)-2-methyl-8-((S)-3-methylmorpholine)pyrido[4,3-d]pyrimidine-7(6H)-one] | significant inhibitory effect on tumor growth | 59.0 | 13.1 | 2.1 | 27.6 | –
2 | [2H][C@](C)(Nc1nc(C)nc2c(N3CCOCC3)c(=O)n(C3(CF)CC3)cc12)c1cccc(C(F)F)c1F [Example 55, (R)-4-((1-(3-(difluoromethyl)-2-fluorophenyl)ethyl-1-d)amino)-6-(1-(fluoromethyl)cyclopropyl)-2-methyl-8-morpholinylpyrido[4,3-d]pyrimidine-7(6H)-one] | – | 65.4 | – | 5.09 | 24.3 | 4.77
